Test results from the supplement of paper PMC11061612.

How the values were obtained:
[1] = test system: DMS-53 (Small Cell Lung Carcinoma); experiment: combination Emax (second highest fraction inhibited in the dose matrix, 72 h); higher = more inhibition; extreme values may be limits of the assay
Procedure, shortened: (§1)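 After 24 hours at 37°C and 5% CO2 in 1536-well plates, cells in DMEM/F12 or RPMI plus 10% FBS received two-drug dose matrices for 72 hours. Viability came from CellTiter-Glo 2.0 luminescence and was scaled as inhibition, anchored at 0 by vehicle wells and at 1 by blank wells. Combination Emax is taken as the second-highest inhibition in the matrix, and Bliss excess as the observed combination effect less EA + EB − EA·EB, with EA and EB the single-agent effects.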

[2] = test system: A2780 (Ovarian Carcinoma); experiment: as above
Procedure, shortened: as §1

[3] = test system: MHH-ES-1 (Ewing's Sarcoma); experiment: as above
Procedure, shortened: as §1

[4] = test system: NCI-H2087 (Lung Adenocarcinoma); experiment: as above
Procedure, shortened: as §1

[5] = test system: CAL-27 (Oral Cavity Carcinoma); experiment: as above
Procedure, shortened: as §1

[6] = test system: KYSE-220 (Esophageal Squamous Cell Carcinoma); experiment: as above
Procedure, shortened: as §1

769-P (Kidney Carcinoma) = experiment: as above
Procedure, shortened: as §1

A101D (Melanoma) = experiment: as above
Procedure, shortened: as §1

[7] = test system: JVM-2 (B-Cell Non-Hodgkin's Lymphoma); experiment: as above
Procedure, shortened: as §1

[8] = test system: CESS (Acute Myeloid Leukemia); experiment: as above
Procedure, shortened: as §1

[9] = test system: TE-10 (Esophageal Squamous Cell Carcinoma); experiment: as above
Procedure, shortened: as §1

[10] = test system: TE-10 (Esophageal Squamous Cell Carcinoma); experiment: Bliss excess, mean over the matrix (fraction); higher = more synergy
Procedure, shortened: as §1
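Throughout, for Bliss excess, mean over the matrix: after 72 h of two-drug dosing.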

SMILES	combination Emax [1]	combination Emax [2]	combination Emax [3]	combination Emax [4]	combination Emax [5]	combination Emax [6]	combination Emax (769-P (Kidney Carcinoma))	combination Emax (A101D (Melanoma))	combination Emax [7]	combination Emax [8]	combination Emax [9]	Bliss excess [10]
CN(C)CCCOc1ccc(-c2ccc3ncc4c(c3c2)n(C2CCOCC2)c(=O)n4C)cn1 [AZD0156] + C[C@@H]1COCCN1C2=NC(=NC(=C2)C3(CC3)[S@](=N)(=O)C)C4=C5C=CNC5=NC=C4 [AZD6738] (first compound max 1 µM, 7x7, partner max 10 µM)	0.134	0.81	0.638	0.666	0.586	0.876	0.84	0.703	0.849	0.923	0.814	-0.0075
C=CCn1c(=O)c2cnc(Nc3ccc(N4CCN(C)CC4)cc3)nc2n1-c1cccc(C(C)(C)O)n1 [AZD1775] + C[C@@H]1COCCN1C2=NC(=NC(=C2)C3(CC3)[S@](=N)(=O)C)C4=C5C=CNC5=NC=C4 [AZD6738] (first compound max 1 µM, partner max 10 µM)	0.221	0.938	0.714	0.729	0.682	0.941	0.847	0.749	0.901	0.937	0.901	-0.0029
C=CCn1c(=O)c2cnc(Nc3ccc(N4CCN(C)CC4)cc3)nc2n1-c1cccc(C(C)(C)O)n1 [AZD1775] + O=C(c1cc(Cc2n[nH]c(=O)c3ccccc23)ccc1F)N1CCN(C(=O)C2CC2)CC1 [Olaparib] (first compound max 1 µM, partner max 10 µM)	0.148	0.76	0.886	0.493	0.525	0.857	0.716	0.604	0.888	0.916	0.858	-0.0196
CCN(CCO)CCCOc1ccc2c(Nc3cc(CC(=O)Nc4cccc(F)c4)[nH]n3)ncnc2c1 [AZD2811] + C=CCn1c(=O)c2cnc(Nc3ccc(N4CCN(C)CC4)cc3)nc2n1-c1cccc(C(C)(C)O)n1 [AZD1775] (first compound max 1 µM, partner max 1 µM)	0.111	0.82	0.734	0.291	0.511	0.804	0.632	0.427	0.91	0.922	0.737	0.0176
CCN(CCO)CCCOc1ccc2c(Nc3cc(CC(=O)Nc4cccc(F)c4)[nH]n3)ncnc2c1 [AZD2811] + C[C@@H]1COCCN1C2=NC(=NC(=C2)C3(CC3)[S@](=N)(=O)C)C4=C5C=CNC5=NC=C4 [AZD6738] (first compound max 1 µM, 7x7, partner max 10 µM)	0.144	0.815	0.685	0.662	0.515	0.884	0.85	0.682	0.875	0.893	0.794	-0.0869
CCN(CCO)CCCOc1ccc2c(Nc3cc(CC(=O)Nc4cccc(F)c4)[nH]n3)ncnc2c1 [AZD2811] + O=C(c1cc(Cc2n[nH]c(=O)c3ccccc23)ccc1F)N1CCN(C(=O)C2CC2)CC1 [Olaparib] (first compound max 1 µM, 7x7, partner max 10 µM)	0.181	0.717	0.76	0.163	0.778	0.214	0.144	0.261	0.738	0.513	0.4	0.0515
CN(CCO)CC[C@H](CSc1ccccc1)Nc1ccc(S(=O)(=O)NC(=O)c2ccc(N3CCC([C@@H](O)c4ccccc4-c4ccc(Cl)cc4)CC3)cc2)cc1S(=O)(=O)C(F)(F)F [AZD4320] + CN(C)CCCOc1ccc(-c2ccc3ncc4c(c3c2)n(C2CCOCC2)c(=O)n4C)cn1 [AZD0156] (first compound max 1 µM, 7x7, partner max 1 µM)	0.965	0.383	0.491	0.321	0.158	0.14	0.719	0.413	0.487	0.333	0.281	-0.0208
Cc1c2c(nn1C)CSCc1cc(n(C)n1)CSc1cc(c3ccccc3c1)OCCCc1c(C(=O)O)n(C)c3c-2c(Cl)ccc13 [AZD5991] + C1CN(CCC1(C(=O)N[C@@H](CCO)C2=CC=C(C=C2)Cl)N)C3=NC=NC4=C3C=CN4 [Capivasertib] (first compound max 1 µM, 7x7, partner max 3 µM)	0.442	0.838	0.591	0.129	0.996	0.252	0.146	1	0.801	0.566	0.901	0.0484
Cc1c2c(nn1C)CSCc1cc(n(C)n1)CSc1cc(c3ccccc3c1)OCCCc1c(C(=O)O)n(C)c3c-2c(Cl)ccc13 [AZD5991] + C=CCn1c(=O)c2cnc(Nc3ccc(N4CCN(C)CC4)cc3)nc2n1-c1cccc(C(C)(C)O)n1 [AZD1775] (first compound max 1 µM, partner max 1 µM)	0.684	0.858	0.87	0.481	0.972	0.848	0.858	1	0.966	0.967	0.942	-0.0235
Cc1c2c(nn1C)CSCc1cc(n(C)n1)CSc1cc(c3ccccc3c1)OCCCc1c(C(=O)O)n(C)c3c-2c(Cl)ccc13 [AZD5991] + CC1(C)CCC(CN2CCN(c3ccc(C(=O)NS(=O)(=O)c4ccc(NCC5CCOCC5)c([N+](=O)[O-])c4)c(Oc4cnc5[nH]ccc5c4)c3)CC2)=C(c2ccc(Cl)cc2)C1 [Venetoclax] (first compound max 1 µM, 7x7, partner max 1 µM)	0.828	0.817	0.852	0.153	0.955	0.181	0.122	0.989	0.639	0.525	0.886	0.0262
Cc1c2c(nn1C)CSCc1cc(n(C)n1)CSc1cc(c3ccccc3c1)OCCCc1c(C(=O)O)n(C)c3c-2c(Cl)ccc13 [AZD5991] + CCN(CCO)CCCOc1ccc2c(Nc3cc(CC(=O)Nc4cccc(F)c4)[nH]n3)ncnc2c1 [AZD2811] (first compound max 1 µM, 7x7, partner max 1 µM)	0.56	0.802	0.883	0.191	0.974	0.308	0.328	0.998	0.772	0.578	0.848	-0.0161
Cc1c2c(nn1C)CSCc1cc(n(C)n1)CSc1cc(c3ccccc3c1)OCCCc1c(C(=O)O)n(C)c3c-2c(Cl)ccc13 [AZD5991] + CN(C)CCCOc1ccc(-c2ccc3ncc4c(c3c2)n(C2CCOCC2)c(=O)n4C)cn1 [AZD0156] (first compound max 1 µM, 7x7, partner max 1 µM)	0.716	0.682	0.652	0.201	0.958	0.278	0.243	1	0.753	0.233	0.84	-0.055
Cc1c2c(nn1C)CSCc1cc(n(C)n1)CSc1cc(c3ccccc3c1)OCCCc1c(C(=O)O)n(C)c3c-2c(Cl)ccc13 [AZD5991] + C[C@@H]1COCCN1C2=NC(=NC(=C2)C3(CC3)[S@](=N)(=O)C)C4=C5C=CNC5=NC=C4 [AZD6738] (first compound max 1 µM, 7x7, partner max 10 µM)	0.616	0.922	0.837	0.588	1	0.877	0.797	1	0.912	0.958	0.901	-0.0332
Cc1c2c(nn1C)CSCc1cc(n(C)n1)CSc1cc(c3ccccc3c1)OCCCc1c(C(=O)O)n(C)c3c-2c(Cl)ccc13 [AZD5991] + C[C@@H](Nc1cc(F)cc(F)c1)c1cc(C(=O)N(C)C)cc2c(=O)cc(N3CCOCC3)oc12 [AZD8186] (first compound max 1 µM, 7x7, partner max 3 µM)	0.398	0.835	0.665	0.167	0.936	0.177	0.223	0.952	0.712	0.554	0.891	0.0078
Cc1c2c(nn1C)CSCc1cc(n(C)n1)CSc1cc(c3ccccc3c1)OCCCc1c(C(=O)O)n(C)c3c-2c(Cl)ccc13 [AZD5991] + Cc1cc2ncnn2cc1Nc1ncc2c(n1)n(C1CCOCC1)c(=O)n2C [AZD7648] (first compound max 1 µM, 7x7, partner max 10 µM)	0.554	0.751	0.688	0.187	0.985	0.218	0.32	0.997	0.68	0.416	0.855	-0.0057
Cc1c2c(nn1C)CSCc1cc(n(C)n1)CSc1cc(c3ccccc3c1)OCCCc1c(C(=O)O)n(C)c3c-2c(Cl)ccc13 [AZD5991] + Cn1cnc2c(F)c(Nc3ccc(Br)cc3Cl)c(C(=O)NOCCO)cc21 [Selumetinib] (first compound max 1 µM, 7x7, partner max 3 µM)	0.618	0.538	0.672	0.588	0.988	0.304	0.227	1	0.646	0.289	0.899	0.0198
C[C@@H]1COCCN1c1cc(C2([S@](C)(=N)=O)CC2)nc(-c2ccnc3[nH]ccc23)n1 [AZD6738] + O=C(c1cc(Cc2n[nH]c(=O)c3ccccc23)ccc1F)N1CCN(C(=O)C2CC2)CC1 [Olaparib] (first compound max 10 µM, 7x7, partner max 10 µM)	0.148	0.832	0.868	0.534	0.793	0.808	0.756	0.661	0.836	0.864	0.78	-0.0141
COc1cccc2c1C(=O)c1c(O)c3c(c(O)c1C2=O)C[C@@](O)(C(=O)CO)C[C@@H]3O[C@H]1C[C@H](N)[C@H](O)[C@H](C)O1 [Doxorubicin] + Cc1cc2ncnn2cc1Nc1ncc2c(n1)n(C1CCOCC1)c(=O)n2C [AZD7648] (first compound max 1 µM, 7x7, partner max 10 µM)	0.455	0.934	0.916	0.655	0.741	0.979	0.706	0.897	0.983	0.949	0.746	0.0583
